# Measured values published in patent US20210189352A1, “ENHANCED REPROGRAMMING OF SOMATIC CELLS” (IMBA - INSTITUT FÜR MOLEKULARE BIOTECHNOLOGIE GMBH, priority 2017, published 2021).
# Tested on: murine embryonic stem cell clone AN3-12
# Experiment: Etoposide treatment of mouse ES cells (LD30 dose)
# Format: cell-based
# Settings: 8 day treatment, medium supplemented every day
# Experimental: A murine embryonic stem cell clone, derived from a derivative of HMSc2 termed AN3-12, with doxycycline inducible Cas9 (T3G-Cas9-IRES-mcherry PGK-GFP-rtTA) was used for this study. The following ES cell medium (ESCM) was used: 450 ml DMEM (Sigma D1152); 75 ml FCS (Invitrogen); 5.5 ml P/S (Sigma P0781); 5.5 ml NEAA (Sigma M7145); 5.5 ml LGlu (Sigma G7513); 5.5 ml NaPyr (Sigma S8636); 0.55 ml beta-mercapto ethanol (Merck 805740; dilute 10 μl bME in 2.85 ml PBS for a 1000× stock), 7.5 μl LIF (IMBA-MolBioService; 2 mg/ml). Cell culture-grade dishes were from Greiner (Greiner 15 cm 639160) and NUNC (all other formats, e.g. 10 cm dish Nunclon A Surface, cat no. 150350; 6-well Nunclon A Surface, cat no. 140675). Cells were trypsinized and replated every 2nd day and frozen in FCS:ESCM:DMSO=4.5:4.5:1. Cells were tested for mycoplasma every second week. Etoposide treatment: Medium was supplemented every day with 3.3 nM etoposide, an LD30 dose for 8 day treatment (Sigma E2600000), 1000× etoposide stocks dissolved in PBS-10% EtOH were used. For doxycycline treatment, medium was supplemented every day with 1 μg/ml (Sigma). Cells are tested for mycoplasma contamination every second week.
smiles,measurement,value
COc1cc([C@@H]2c3cc4c(cc3[C@@H](O[C@@H]3O[C@@H]5CO[C@@H](C)O[C@H]5[C@H](O)[C@H]3O)[C@H]3COC(=O)[C@H]23)OCO4)cc(OC)c1O [etoposide],LD30 dose,3.3 nM
